Results published in US7915297B2, “Isoxazole derivatives and use thereof” (SK Holdings Co., Ltd., priority 2005, dated 2011).

Assays:
[1] = system: ovariectomized ICR mice; experiment: In vivo osteoporosis assay in ovariectomized ICR mice (DEXA, micro-CT of spine L3-L6); conditions: for BMD (g/cm^2) Avg. ± SD / BMD Change (%) / Trabeculae volume Change (%) / Trabeculae volume(mm^2) Avg. ± SD: four weeks; for BMD (g/cm^2) Avg. ± SD: spine L3-L6, DEXA; for BMD Change (%) / Trabeculae volume Change (%): Sham = 0.0
Experimental: Experimental animals were female ICR mice having body weights of 24-28 g which were about 7 weeks old. In each cage, measuring 40×25×17 cm, 2-3 mice were reared at 22° C., RH 50%.
Ovariectomy is known as one of the most widely used techniques for inducing osteoporosis. As in postmenopause case, the ovariectomy-operation induce estrogen insufficient, result in decrease of osteogenesis and increase of bone resorption, lead to osteoporosis. Anaesthetized 7-week-old female ICR mice underwent ovariectomies and, immediately after the removal of both ovaries, they were administered with test compounds to determine the preventive and therapeutic effects thereof on osteoporosis.
1) Preparation of test material: Predetermined amounts of Derivative (1) were suspended in 0.5% CMC to prepare test materials to be administered. As for the control drug alendronate, 0.17% citric acid was added thereto as a pharmacopoeia to aid in the uptake of the drug.
2) Administration period: four weeks
3) Administration route and method: test materials were administered in a volume of 10 ml/kg of body weight, measured on the administration day, into seven groups: (1) intact control (ICR mice bred with typical diet, control); (2) ovariectomy control (the abdomen opened and closed without removal of the ovary, Sham); (3) ovariectomy group (ovaries removed, OVX); (4) alendronate-treated group (a dose of 5 mg/kg/day); (5) Derivative (1) 30 mg/kg/day treated group (OVX+Derivative (1) 30 mpk); (6) Derivative (1) 90 mg/kg/day treated group (OVX+Derivative (1) 90 mpk); and (7) Derivative (1) […] treated group (OVX+Derivative (1) 30 mpkW). Groups (1)˜(6) were orally treated five day a week for four weeks while group (7) was treated once a week for four weeks.
After administration for four weeks, the spine (L3-L6) was analyzed for bone mineral density (BMD) through dual-energy X-ray absorptiometry (DEXA) using a Lunar Pixi #5 instrument. Micro-computed tomography (Micro-CT) was performed to determine the effects of the test materials on bone mass and bone strength and on the tertiary bone mass of the spine (L3-L6).

[2] = system: Wnt/β-catenin signaling (β-catenin activity) in SW480 cell line; experiment: Cell-based Wnt agonist screening, TCF luciferase reporter, SW480 (TCF-FL); design: species or system human; conditions: Homo sapiens, % of LiCl (20 mM), 24 h, Con. 120 μM, read-out: Max. Activity (%)
Outline: (§1)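 HEK293 and SW480 lines stably carried a 5X TCF firefly luciferase reporter under G418 selection. Cells (8,000–15,000/well, RPMI 1640 with 5% FBS) were grown 24 h, then treated with compound for 24 h. Luciferase activity was expressed as percent of the 20 mM LiCl positive control.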

[3] = system: Wnt/β-catenin signaling (β-catenin activity) in HEK293 cell line; experiment: Cell-based Wnt agonist screening, TCF luciferase reporter, HEK293 (TCF-FL); design: species or system human; conditions: Homo sapiens, HEK293, 24 h, % of LiCl (20 mM), 24 h, Conc. 60 μM, read-out: Max. Activity (%)
Outline: as §1

[4] = Group 5 (OVX + D30): 30 mg/kg/day, oral
[5] = Group 6 (OVX + D90): 90 mg/kg/day, oral
[6] = Group 7 (OVX + W30): 90 mg/kg/week (30 mpkW), once a week

Compound: O=C(NCCCn1ccnc1)c1cc(-c2ccco2)on1 [Derivative (1), 5-furan-2-yl-isoxazole-3-carboxylic acid (3-imidazol-1-yl-propyl)-amide]
- BMD (g/cm^2) Avg. ± SD ([1]; Group 5 (OVX + D30): 30 mg/kg/day, oral, five day a week): 0.061 ± 0.007 g/cm^2
- BMD Change (%) [1, 4]: −11.6%
- Trabeculae volume Change (%) [1, 4]: 4.8%
- Trabeculae volume(mm^2) Avg. ± SD ([1]; Group 5 (OVX + D30): 30 mg/kg/day, oral, spine L3-L6, micro-CT): 21.7 ± 2.43 mm^2
- BMD (g/cm^2) Avg. ± SD ([1]; Group 6 (OVX + D90): 90 mg/kg/day, oral, five day a week): 0.063 ± 0.005 g/cm^2
- BMD Change (%) [1, 5]: −8.7%
- Trabeculae volume Change (%) [1, 5]: 44.4%
- Trabeculae volume(mm^2) Avg. ± SD ([1]; Group 6 (OVX + D90): 90 mg/kg/day, oral, spine L3-L6, micro-CT): 29.9 ± 0.83 mm^2
- BMD Change (%) [1, 6]: −15.9%
- Trabeculae volume Change (%) [1, 6]: 26.1%
- Trabeculae volume(mm^2) Avg. ± SD ([1]; Group 7 (OVX + W30): 90 mg/kg/week (30 mpkW), once a week, micro-CT): 26.1 ± 1.87 mm^2
- BMD (g/cm^2) Avg. ± SD [1, 6]: 0.058 ± 0.006 g/cm^2
- therapeutic effect on bone mass compared with alendronate ([1]; OVX mice, four weeks administration): exceed that of alendronate
- effect on bone mineral density (BMD) versus OVX group ([1]; OVX mice, four weeks administration, DEXA): decrease in bone mineral density to lesser extents compared to the OVX group
- effect on bone mass (BV/TV) ([1]; OVX mice, four weeks administration, micro-CT): restrain the decrease of bone mass, but also to increase the bone density to a higher level than before ovariectomy
- Emax at 120 µM [2]: 957%
- Emax at 60 µM [3]: 70%
